Results on two compounds are retold here after patent US20060058388A1, “Methods for treating ocular diseases via introxide and or polyhydroxy acid containing compounds” (priority 2003, published 2006).

The test system of data set [1] is human skin fibroblasts containing the human elastin promoter linked to a luciferase reporter gene construct. In words: Neutral Red Cytotoxicity/Phototoxicity Assay. How it is done:
Immortalized human skin fibroblasts containing the human elastin promoter linked to a luciferase reporter gene construct were seeded in 96-well plates at a density of 7,500 cells per well (doubling time ˜30 hours). Cells were grown in 75 cm^2 tissue culture flasks in MEM (without phenol red) supplemented with 10% FBS, 25 mM HEPES, 2 mM l-glutamine, 1% nonessential amino acids, 50 μg/mL Gentamycin, and 5 μg/mL Zeocin. Cell cultures were incubated in a 37° C. incubator (containing 5% CO2) when not being manipulated or irradiated. Cell cultures were washed with Phosphate Buffered Saline (PBS) with Ca^++ and Mg^++ when media or compounds were removed and before ultraviolet radiation (UVR).
Gluconolactone was prepared in PBS. Concentrations of 0.5, 1.0, 2.5, 5.0, 7.5, 10.0, 12.5, and 25% (w/v) were prepared and adjusted to a pH of 7.2. Gluconolactone was incubated 15 minutes prior to and in contact with cell cultures during UV-irradiation.
4-Hydroxy-tempo (tempol) was prepared in PBS. Concentrations of tempol of 10, 25, 50, 62.5, 100, 125, 250, and 500 mM were prepared and adjusted to a pH of 7.2. Tempol was incubated 15 minutes prior to and in contact with cell cultures during UV-irradiation.
Cell cultures were UV-irradiated with Westinghouse 40-Watt fluorescent sunlamps (FS-40 lamps) with doses of either 2 or 5 mJ/cm^2, based on a PMA2100 radiometer (Solar light Company, Philadelphia, Pa.) equipped with a PMA2101 erythema weighted detector.
Fifteen hours after UV-irradiation with the FS-40 lamps, cell cultures were washed with PBS and Neutral Red Medium (Neutral Red dye+supplemented MEM) was added for a 3 hours (in 37° C. incubators). After the incubation period, cells are washed with PBS and the Neutral Red Desorb solution (50% Ethanol, 49% distilled water, 1% Glacial Acetic Acid) was added. Plates are shaken for 10 minutes at 500 rpm and then the absorption was read at 540 nm using THERMOmax plate reader and SOFTmax PRO software.

The subject of data set [2] is human elastin promoter linked to a luciferase reporter gene construct in human skin fibroblasts. Put plainly: human elastin promoter/luciferase assay (UV-induced promoter induction). Format: cell-based. How it is done: Thus, gluconolactone protects against UV-induced gene induction in cells containing the human elastin promoter/luciferase construct. […] The ED50 for cell cultures with tempol but not receiving any ultraviolet radiaiton was approximately 100 mM.
Gluconolactone was prepared in PBS.
4-Hydroxy-tempo (tempol) was prepared in PBS.

As to `O=C1O[C@H](CO)[C@@H](O)[C@H](O)[C@H]1O` [Glucolactone, Gluconolactone], the phototoxicity or cytotoxicity entry in data set [1] is on record as “did not demonstrate significant phototoxicity or cytotoxicity”. The ED50 for phototoxicity entry in data set [1] (human, pH 7.2) was “approximately 102 g/L”. Further, the “protection against UV-induced promoter induction” value in data set [2] (human elastin promoter/luciferase fibroblasts, UV-irradiated) was “approximately 50%”.

In the case of `CC1(C)CC(O)CC(C)(C)N1[O]` [tempol, 4-Hydroxy-tempo], the protection against toxicity entry in data set [1] (neutral red assay, increasing ultraviolet doses) is “over 50%”; in data set [2] (human elastin promoter/luciferase assay, increasing ultraviolet doses), “over 50%”. In addition, the “ED50 for cell cultures” value in data set [1] (not receiving any ultraviolet radiation) is reported as “approximately 100 mM”; in data set [1] (ultraviolet radiation dose 2 mJ/cm^2) it was “approximately 150 mM”; in data set [1] (ultraviolet radiation dose 5 mJ/cm^2) it was approximately 250 mM.
